Laboratory results reported in patent publication US9657033B2, “Tetrahydronaphthyridine and related bicyclic compounds for inhibition of RORγ activity and the treatment of disease” (Merck Sharp & Dohme Corp., priority 2012, dated 2017).
Counter-ions that a name gives are not always drawn.

biological target: RORγ-LBD (Homo sapiens (Human), UniProt P51449); experiment: RORγ-Ligand Binding Domain (LBD) TR-FRET Assay Protocol II; format: biochemical; conditions: purified RORγ-LBD, SRC1 peptide, overnight at 4° C.
Sequence (P51449 269-508): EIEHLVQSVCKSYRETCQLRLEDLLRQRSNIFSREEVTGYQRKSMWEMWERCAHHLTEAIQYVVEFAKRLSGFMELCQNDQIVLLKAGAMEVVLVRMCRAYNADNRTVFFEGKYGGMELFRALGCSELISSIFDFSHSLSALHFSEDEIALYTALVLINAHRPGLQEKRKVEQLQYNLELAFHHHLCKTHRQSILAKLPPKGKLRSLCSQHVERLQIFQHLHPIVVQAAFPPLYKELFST
Method: Part II—Procedures for RORγ-Ligand Binding Domain TR-FRET Assay Protocol II
HIS-tagged RORγ-LBD protein was expressed in SF9 cells using a baculovirus expression system. The RORγ-LBD protein was purified by […]. Separately, SF9 cells not expressing recombinant protein were lysed in TBS buffer (25 mM Tris, pH 8.0, 150 mM NaCl) under sonication. The lysate was added to the purified RORγ-LBD in a volume equivalent of 0.75 μL lysate (from 30,000 SF9 cells) per 75 femtomol of RORγ-LBD protein. The resulting mixture was diluted in assay buffer (50 mM Tris pH 7.0, 50 mM KCl, 1 mM EDTA, 0.1 mM DTT, 0.01% BSA) to obtain RORγ-LBD protein at a final concentration of 3 nM.
Compounds to be tested were injected to the assay plate using Acoustic Droplet Ejection technology by Echo 550 liquid handler (Labcyte, Calif.).
A stock of biotinylated-LXXLL peptide from coactivator SRC1 (Biotin-[…]) was prepared in assay buffer and added to each well (100 nM final concentration). A solution of Europium tagged anti-HIS antibody (1.25 nM final concentration) and APC-conjugated streptavidin (8 nM final concentration) were also added to each well.
The final assay mixture was incubated overnight at 4° C., and the fluorescence signal was measured on an Envision plate reader: (Excitation filter=340 nm; APC emission=665 nm; Europium emission=615 nm; dichroic mirror=D400/D630; delay time=100 μs, integration time=200 μs). The EC50 value for test compounds was calculated from the quotient of the fluorescence signal at 665 nm divided by the fluorescence signal at 615 nm

For `O=C(Nc1cnc2c(c1)N(S(=O)(=O)c1cccc(C(F)(F)F)c1)CC(N1CCOC1=O)C2)c1c(Cl)cccc1Cl` (stereo in doubt) [Compound 98, (R)-2,6-dichloro-N-(7-(2-oxooxazolidin-3-yl)-5-((3-(trifluoromethyl)phenyl)sulfonyl)-5,6,7,8-tetrahydro-1,5-naphthyridin-3-yl)benzamide], which EC50 is on record?
Its EC50 is 17 nM.

Which EC50 does the source give for `CC(=O)NC[C@H]1CN(S(=O)(=O)c2cccc(C3CC3)c2)c2cc(NC(=O)c3c(Cl)cccc3Cl)cnc2O1` [Compound 18, (S)-N-(3-(acetamidomethyl)-1-((3-cyclopropylphenyl)sulfonyl)-2,3-dihydro-1H-pyrido[2,3-b][1,4]oxazin-7-yl)-2,6-dichlorobenzamide] here?
The EC50 was 13 nM.

How did the EC50 turn out when `Cc1cccc(S(=O)(=O)N2C[C@H](C)Oc3ncc(NC(=O)C(C)C(F)(F)F)cc32)c1` (stereo partly drawn) [Compound 30] was run?
The EC50 was 111 nM.

With `Cc1cccc(S(=O)(=O)N2C[C@H](C)Oc3ncc(NC(=O)C(C)c4ccccc4C)cc32)c1` (stereo partly drawn) [Compound 31] as the compound, how does the EC50 read?
The EC50 was 57 nM.

How did the EC50 turn out when `Cc1cccc(S(=O)(=O)N2C[C@H](C)Oc3ncc(NC(=O)C(C)c4ccc(F)cc4)cc32)c1` (stereo partly drawn) [Compound 32] was run?
The EC50 was 97 nM.

With `CCC(C)C(=O)Nc1cnc2c(c1)N(S(=O)(=O)c1cccc(C)c1)C[C@H](C)O2` (stereo partly drawn) [Compound 33] as the compound, how does the EC50 read?
Its EC50 is 152 nM.

Which EC50 does the source give for `Cc1cccc(S(=O)(=O)N2C[C@H](C)Oc3ncc(NC(=O)C(C)c4ccc(Cl)cc4)cc32)c1` (stereo partly drawn) [Compound 34] here?
The EC50 was 108 nM.

`C[C@H]1CN(S(=O)(=O)c2cccc(C3CC3)c2)c2cc(NC(=O)c3c(Cl)cccc3Cl)cnc2O1` [Compound 35] was tested. Which EC50 did it give?
The EC50 was 7 nM.

How did the EC50 turn out when `Cc1cccc(S(=O)(=O)N2C[C@H](NC(=O)OC(C)(C)C)Cc3ncc(NC(=O)c4c(Cl)cccc4Cl)cc32)c1` [Compound 39, (R)-tert-butyl (7-(2,6-dichlorobenzamido)-1-(m-tolylsulfonyl)-1,2,3,4-tetrahydro-1,5-naphthyridin-3-yl)carbamate] was run?
Its EC50 is 25 nM.

For `Cc1cccc(S(=O)(=O)N2C[C@H](N)Cc3ncc(NC(=O)c4c(Cl)cccc4Cl)cc32)c1` [Compound 40, (R)-N-(7-amino-5-(m-tolylsulfonyl)-5,6,7,8-tetrahydro-1,5-naphthyridin-3-yl)-2,6-dichlorobenzamide trifluoroacetic acid salt], which EC50 is on record?
The EC50 was 18 nM.

For `CC(=O)N[C@@H]1Cc2ncc(NC(=O)c3c(Cl)cccc3Cl)cc2N(S(=O)(=O)c2cccc(C)c2)C1` [Compound 41, (R)-N-(7-acetamido-5-(m-tolylsulfonyl)-5,6,7,8-tetrahydro-1,5-naphthyridin-3-yl)-2,6-dichlorobenzamide], which EC50 is on record?
The EC50 was 18 nM.

For `COC(=O)N[C@@H]1Cc2ncc(NC(=O)c3c(Cl)cccc3Cl)cc2N(S(=O)(=O)c2cccc(C)c2)C1` [Compound 42, (R)-methyl (7-(2,6-dichlorobenzamido)-1-(m-tolylsulfonyl)-1,2,3,4-tetrahydro-1,5-naphthyridin-3-yl)carbamate], which EC50 is on record?
Its EC50 is 25 nM.

`CC(=O)NC[C@H]1CN(S(=O)(=O)c2cccc(C3CC3)c2)c2cc(NC(=O)c3c(Cl)cccc3Cl)cnc2O1` [Compound 43] was tested. Which EC50 did it give?
The EC50 was 24 nM.

How did the EC50 turn out when `CC(C)(C)OC(=O)N[C@@H]1Cc2ncc(NC(=O)c3c(Cl)cccc3Cl)cc2N(S(=O)(=O)c2cccc(Cl)c2)C1` [Compound 45] was run?
Its EC50 is 6 nM.

How did the EC50 turn out when `CC(=O)NC1Cc2ncc(NC(=O)c3c(Cl)cccc3Cl)cc2N(S(=O)(=O)c2cccc(Cl)c2)C1` (stereo not drawn) [Compound 46] was run?
The EC50 was 72 nM.

With `CC(C)OC(=O)N[C@H]1Cc2ncc(NC(=O)c3c(Cl)cccc3Cl)cc2N(S(=O)(=O)c2cccc(C(F)(F)F)c2)C1` [Compound 47] as the compound, how does the EC50 read?
The EC50 was 36 nM.

`CN(C)C(=O)NC1Cc2ncc(NC(=O)c3c(Cl)cccc3Cl)cc2N(S(=O)(=O)c2cccc(C(F)(F)F)c2)C1` (stereo not drawn) [Compound 48] was tested. Which EC50 did it give?
Its EC50 is 10 nM.

With `Cc1nn(C(F)F)cc1S(=O)(=O)N1C[C@@H](NC(=O)C(F)(F)F)Cc2ncc(NC(=O)c3c(F)cccc3Cl)cc21` [Compound 49] as the compound, how does the EC50 read?
Its EC50 is 12 nM.

With `Cc1nn(C(F)F)cc1S(=O)(=O)N1C[C@H](NC(=O)C(F)(F)F)Cc2ncc(NC(=O)c3c(F)cccc3Cl)cc21` [Compound 50] as the compound, how does the EC50 read?
The EC50 was 31 nM.

With `C[C@H](N)C(=O)N[C@H]1Cc2ncc(NC(=O)c3c(Cl)cccc3Cl)cc2N(S(=O)(=O)c2cccc(C(F)(F)F)c2)C1` [Compound 51] as the compound, how does the EC50 read?
The EC50 was 852 nM.

With `C[C@H](O)C(=O)N[C@H]1Cc2ncc(NC(=O)c3c(Cl)cccc3Cl)cc2N(S(=O)(=O)c2cccc(C(F)(F)F)c2)C1` [Compound 52] as the compound, how does the EC50 read?
Its EC50 is 74 nM.

`N[C@H]1Cc2ncc(NC(=O)c3c(Cl)cccc3Cl)cc2N(S(=O)(=O)c2cccc(C(F)(F)F)c2)C1` [Compound 53] was tested. Which EC50 did it give?
The EC50 was 25 nM.

For `CC(C)(C)OC(=O)N[C@H]1Cc2ncc(NC(=O)c3c(Cl)cccc3Cl)cc2N(S(=O)(=O)c2cccc(C(F)(F)F)c2)C1` [Compound 54], which EC50 is on record?
The EC50 was 17 nM.

For `C[C@H](N)C(=O)N[C@@H]1Cc2ncc(NC(=O)c3c(Cl)cccc3Cl)cc2N(S(=O)(=O)c2cccc(C(F)(F)F)c2)C1` [Compound 55], which EC50 is on record?
The EC50 was 32 nM.

`C[C@H](O)C(=O)N[C@@H]1Cc2ncc(NC(=O)c3c(Cl)cccc3Cl)cc2N(S(=O)(=O)c2cccc(C(F)(F)F)c2)C1` [Compound 56] was tested. Which EC50 did it give?
The EC50 was 132 nM.

`N[C@H]1Cc2ncc(NC(=O)c3c(Cl)cccc3Cl)cc2N(S(=O)(=O)c2cccc(C(F)(F)F)c2)C1` [Compound 57] was tested. Which EC50 did it give?
Its EC50 is 24 nM.

With `CC(C)OC(=O)N[C@@H]1Cc2ncc(NC(=O)c3c(Cl)cccc3Cl)cc2N(S(=O)(=O)c2cccc(C(F)(F)F)c2)C1` [Compound 58] as the compound, how does the EC50 read?
The EC50 was 13 nM.

For `CC(C)(C)OC(=O)N[C@@H]1Cc2ncc(NC(=O)c3c(Cl)cccc3Cl)cc2N(S(=O)(=O)c2cccc(C(F)(F)F)c2)C1` [Compound 59], which EC50 is on record?
Its EC50 is 24 nM.

For `N[C@H](CO)C(=O)NC1Cc2ncc(NC(=O)c3c(Cl)cccc3Cl)cc2N(S(=O)(=O)c2cccc(C(F)(F)F)c2)C1` (stereo partly drawn) [Compound 60], which EC50 is on record?
The EC50 was 23 nM.

For `CCOC(=O)N[C@H]1Cc2ncc(NC(=O)c3c(Cl)cccc3Cl)cc2N(S(=O)(=O)c2cccc(C(F)(F)F)c2)C1` [Compound 63], which EC50 is on record?
The EC50 was 26 nM.

Which EC50 does the source give for `CCOC(=O)N[C@@H]1Cc2ncc(NC(=O)c3c(Cl)cccc3Cl)cc2N(S(=O)(=O)c2cccc(C(F)(F)F)c2)C1` [Compound 64] here?
Its EC50 is 18 nM.

`Cc1nn(C(F)F)cc1S(=O)(=O)N1C[C@@H](NC(=O)OC(C)C)Cc2ncc(NC(=O)c3c(F)cccc3Cl)cc21` [Compound 65] was tested. Which EC50 did it give?
Its EC50 is 9 nM.

Which EC50 does the source give for `Cc1nn(C(F)F)cc1S(=O)(=O)N1C[C@H](NC(=O)OC(C)C)Cc2ncc(NC(=O)c3c(F)cccc3Cl)cc21` [Compound 66] here?
The EC50 was 204 nM.

With `Cc1cccc(S(=O)(=O)N2C[C@H](NC(=O)[C@H](C)O)Cc3ncc(NC(=O)c4c(Cl)cccc4Cl)cc32)c1` [Compound 67] as the compound, how does the EC50 read?
Its EC50 is 23 nM.

How did the EC50 turn out when `CC(=O)NC1Cc2ncc(NC(=O)c3c(Cl)cccc3Cl)cc2N(S(=O)(=O)c2cccc(C3CC3)c2)C1` (stereo not drawn) [Compound 68] was run?
The EC50 was 25 nM.

`CC(C)(C)OC(=O)NC1Cc2ncc(NC(=O)c3c(Cl)cccc3Cl)cc2N(S(=O)(=O)c2cccc(C3CC3)c2)C1` (stereo not drawn) [Compound 69] was tested. Which EC50 did it give?
The EC50 was 13 nM.

With `NC1Cc2ncc(NC(=O)c3c(Cl)cccc3Cl)cc2N(S(=O)(=O)c2cccc(C3CC3)c2)C1` (stereo not drawn) [Compound 70] as the compound, how does the EC50 read?
The EC50 was 38 nM.

`Cc1cccc(S(=O)(=O)N2CC(N)COc3ncc(NC(=O)C(F)(F)F)cc32)c1` (stereo not drawn) [Compound 71, N-[7-amino-5-(toluene-3-sulfonyl)-5,6,7,8-tetrahydro-9-oxa-1,5-diaza-benzocyclohepten-3-yl]-2,2,2-trifluoro-acetamide] was tested. Which EC50 did it give?
Its EC50 is 13 nM.

Which EC50 does the source give for `Cc1cccc(S(=O)(=O)N2CC(N)COc3ncc(NC(=O)c4c(Cl)cccc4Cl)cc32)c1` (stereo not drawn) [Compound 74, N-[7-amino-5-(toluene-3-sulfonyl)-5,6,7,8-tetrahydro-9-oxa-1,5-diaza-benzocyclohepten-3-yl]-2,6-dichloro-benzamide] here?
Its EC50 is 174 nM.

Which EC50 does the source give for `CC(=O)NC1COc2ncc(NC(=O)c3c(Cl)cccc3Cl)cc2N(S(=O)(=O)c2cccc(C)c2)C1` (stereo not drawn) [Compound 75, N-[7-acetylamino-5-(toluene-3-sulfonyl)-5,6,7,8-tetrahydro-9-oxa-1,5-diaza-benzocyclohepten-3-yl]-2,6-dichloro-benzamide] here?
The EC50 was 291 nM.

For `Cc1cccc(S(=O)(=O)N2CC(N(C)C)COc3ncc(NC(=O)c4c(Cl)cccc4Cl)cc32)c1` (stereo not drawn) [Compound 76, 2,6-dichloro-N-[7-dimethylamino-5-(toluene-3-sulfonyl)-5,6,7,8-tetrahydro-9-oxa-1,5-diaza-benzocyclohepten-3-yl]-benzamide], which EC50 is on record?
Its EC50 is 98 nM.

How did the EC50 turn out when `CCNC1Cc2ncc(NC(=O)c3c(Cl)cccc3Cl)cc2N(S(=O)(=O)c2cccc(C)c2)C1` (stereo not drawn) [Compound 77] was run?
The EC50 was 553 nM.

Which EC50 does the source give for `CCN(CC)[C@H]1Cc2ncc(NC(=O)c3c(Cl)cccc3Cl)cc2N(S(=O)(=O)c2cccc(C)c2)C1` [Compound 78] here?
Its EC50 is 25 nM.

For `CCN(CC)[C@@H]1Cc2ncc(NC(=O)c3c(Cl)cccc3Cl)cc2N(S(=O)(=O)c2cccc(C)c2)C1` [Compound 79], which EC50 is on record?
Its EC50 is 24 nM.

`O=C(Nc1ccc2c(c1)N(S(=O)(=O)c1cccc(Cl)c1)C[C@H](CN1CCCC1=O)O2)c1c(Cl)cccc1Cl` [Compound 80, 2,6-dichloro-N-[(S)-4-(3-chloro-benzenesulfonyl)-2-(2-oxopyrrolidin-1-ylmethyl)-3,4-dihydro-2H-benzo[1,4]oxazin-6-yl]-benzamide] was tested. Which EC50 did it give?
The EC50 was 26 nM.
